Like-named read-outs stand apart in the source and are kept apart here.
Legend:
[1] = system: root growth of Arabidopsis Col-0 and dhs mutants; assay: Chemical feeding experiment, root length of 10-day-old seedlings; format: in vivo, Arabidopsis thaliana; conditions: for IC50: Arabidopsis thaliana
Method: (§1) Chemical feeding experiments were carried out as described previously ([de Oliveira et al., 2019]) with some modifications. Seedlings were grown on agar plates containing 0.5 MS with 1% sucrose, 0.8% agar, and 2.5 mM MES at pH 5.7 in the growth chamber where we grew other plants in soil. AAAs and/or shikimate were added to autoclaved media after cooling down to temperatures below 55°C. Plants were grown on the same plate side by side to minimize environmental effects, and multiple plates were prepared to obtain replications. Root lengths of 10-day-old seedlings were quantified by ImageJ.

[2] = target: T1, AthDHS2 (Arabidopsis thaliana, UniProt Q00218); assay: DHS enzymatic activity assay with recombinant AthDHS2; format: biochemical; conditions: for IC50: varied effector concentrations, read-out: IC50 of AthDHS2 inhibition
T1 construct: AthDHS2; residues 34–507; hexa-histidine; made in house; host or cells: E. coli Rosetta2 (DE3), pET28a
T1 sequence (Q00218 34-507): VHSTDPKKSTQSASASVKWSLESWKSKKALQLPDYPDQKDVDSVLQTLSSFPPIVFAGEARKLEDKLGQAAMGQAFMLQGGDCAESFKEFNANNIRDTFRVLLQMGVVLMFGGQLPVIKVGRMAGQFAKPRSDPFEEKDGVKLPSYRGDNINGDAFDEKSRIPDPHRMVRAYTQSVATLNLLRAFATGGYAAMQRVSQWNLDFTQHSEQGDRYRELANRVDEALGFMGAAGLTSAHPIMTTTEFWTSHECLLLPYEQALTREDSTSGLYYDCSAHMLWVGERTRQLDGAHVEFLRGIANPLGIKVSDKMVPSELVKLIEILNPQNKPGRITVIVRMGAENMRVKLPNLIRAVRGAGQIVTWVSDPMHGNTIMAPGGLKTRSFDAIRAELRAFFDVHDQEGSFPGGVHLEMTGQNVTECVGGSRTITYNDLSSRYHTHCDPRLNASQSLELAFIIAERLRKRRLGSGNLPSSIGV

[3] = target: AthDHS3 (Arabidopsis thaliana, UniProt Q9SK84); assay: DHS enzymatic activity assay with recombinant AthDHS3; format: biochemical; conditions: for effect on AthDHS3 activity (in words): 1 mM effector
Chain of AthDHS3 (Q9SK84 entry or part of it): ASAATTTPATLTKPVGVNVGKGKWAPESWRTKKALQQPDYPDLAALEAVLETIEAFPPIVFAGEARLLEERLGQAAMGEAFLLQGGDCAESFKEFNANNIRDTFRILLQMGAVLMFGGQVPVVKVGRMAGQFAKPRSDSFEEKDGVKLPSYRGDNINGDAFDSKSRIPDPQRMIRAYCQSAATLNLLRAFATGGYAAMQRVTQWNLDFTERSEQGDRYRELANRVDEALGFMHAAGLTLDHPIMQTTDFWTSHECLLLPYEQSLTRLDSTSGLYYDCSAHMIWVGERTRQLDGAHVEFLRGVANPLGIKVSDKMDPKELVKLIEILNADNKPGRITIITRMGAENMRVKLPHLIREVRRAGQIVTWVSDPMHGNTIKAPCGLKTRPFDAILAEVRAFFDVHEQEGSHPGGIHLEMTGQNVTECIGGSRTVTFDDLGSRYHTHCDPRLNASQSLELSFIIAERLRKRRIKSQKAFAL
Method: (§2) Unless otherwise noted, DHS enzymatic activity was monitored as previously described ([Liu et al., 2008]), with several optimizations for high-throughput assays with eight-strip PCR tubes and a thermal cycler. The enzyme solution (7.7 µL) containing 50 mM HEPES (pH 7.4) was preincubated with an effector molecule(s) at room temperature for 10 min. For assays using recombinant protein and enzyme fraction isolated from plant leaves, 0.01–0.05 µg and approximately 50 µg of proteins were used, respectively. After adding 0.5 µL of 0.1 M DTT, the samples were further incubated at room temperature for 15 min. […] The enzyme reaction was started by adding 6.8 µL of the substrate solution, then incubated at 37°C for 20 min, and terminated by adding 30 µL of 0.6 M trichloroacetic acid. After brief centrifugation, 5 µL of 200 mM NaIO4 (sodium meta-periodate) in 9 N H3PO4 was added to oxidize the enzymatic product and incubate at 25°C for 20 min. To stop the oxidation reaction, 20 µL of 0.75 M NaAsO2 (sodium arsenite), which was dissolved in 0.5 M Na2SO4 and 0.05 M H2SO4, was immediately mixed. After 5 min of incubation at room temperature, one-third of the sample solution was transferred to a new tube to be mixed with 50 µL of 40 mM thiobarbituric acid and incubated at 99°C for 15 min in a thermal cycler. Developed pink chromophore was extracted by putting the final solutions with 600 µL of cyclohexanone in eight-strip solvent-resistant plastic tubes, mixing vigorously and centrifuging them at 4,500 × g for 3 min to separate water- and cyclohexanone-based layers. The absorbance of the pink supernatant was read at 549 nm with the microplate reader (Infinite 200 PRO, TECAN, Männedorf, Switzerland) to calculate DAHP production with the molar extinction coefficient at 549 nm (ε = 549 nm) of 4.5 × 10^4/M/cm. Reaction mixtures with boiled enzyme or without any substrates were run in parallel and used as negative controls to estimate the background signal for recombinant enzymes or enzymatic fraction from plant tissues, respectively.
(§3) For determination of kinetic parameters, the data of enzymatic activities measured in the presence of various concentration of substrates were calculated with the Michaelis–Menten equation in Graphpad Prism 6 (GraphPad Software, San Diego, CA, USA).

[4] = system: DHS activities from maize (Zea mays) shoots; parameters: method as in Graziana and Boudet, 1980; conditions: 1 mM; ref Graziana and Boudet, 1980; cited from earlier work
[5] = system: carrot (Daucus carota) DHS; parameters: method as in Suzich et al., 1985; conditions: ref Suzich et al., 1985; cited from earlier work
[6] = target: T2, AthDHS1 (Arabidopsis thaliana, UniProt P29976); assay: DHS enzymatic activity assay with recombinant AthDHS1; format: biochemical; conditions: for effect on AthDHS1 activity (in words): 1 mM effector; for IC50: varied effector concentrations, read-out: IC50 of AthDHS1 inhibition
T2 construct: AthDHS1; residues 49–525; hexa-histidine; made in house; host or cells: E. coli Rosetta2 (DE3), pET28a
T2 sequence (P29976 49-525): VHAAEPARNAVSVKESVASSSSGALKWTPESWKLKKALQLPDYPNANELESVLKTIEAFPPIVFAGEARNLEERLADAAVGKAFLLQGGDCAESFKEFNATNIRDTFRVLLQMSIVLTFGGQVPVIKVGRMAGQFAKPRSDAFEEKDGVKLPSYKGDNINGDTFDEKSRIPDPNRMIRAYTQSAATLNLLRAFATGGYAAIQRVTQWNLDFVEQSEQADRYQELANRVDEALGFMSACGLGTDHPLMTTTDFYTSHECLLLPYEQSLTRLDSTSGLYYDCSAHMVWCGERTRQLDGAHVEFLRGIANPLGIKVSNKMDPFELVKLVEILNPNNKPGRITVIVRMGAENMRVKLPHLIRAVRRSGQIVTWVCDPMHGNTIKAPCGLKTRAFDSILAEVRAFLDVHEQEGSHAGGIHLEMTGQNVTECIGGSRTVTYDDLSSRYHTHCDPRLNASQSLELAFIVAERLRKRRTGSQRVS
Method: as §2, §3

[7] = system: AthDHS1 and AthDHS2 mixtures; assay: DHS assay using mixtures of AthDHS1 and AthDHS2 recombinant enzymes; format: biochemical, Arabidopsis thaliana; conditions: 1 mM effector; molar ratios 0, 0.25, 0.5, 0.75, 1
Method: Next, we thought that the presence of non-inhibited DHS isoforms (e.g. AthDHS1) may affect the AAA sensitivity of AthDHS2, given that AthDHSs are known to function as tetrameric or dimeric forms ([Suzich et al., 1985]; [Pinto et al., 1986]; [Webby et al., 2005]). To test this, the recombinant enzymes of AAA non-inhibited AthDHS1 and AAA-inhibited AthDHS2 were mixed with different ratios (0, 0.25, 0.5, 0.75, and 1) and DHS activity assays were conducted with different inhibitors. Based on the kinetic parameters and the regulatory behaviors of individual AthDHSs, the expected level of DHS activity was first calculated and plotted (dotted lines in Figure 5, D, see the “Materials and methods” section). […] Similar results were obtained for the AthDHS2 and AthDHS3 mixture (Figure 5, E).
Unless otherwise noted, DHS enzymatic activity was monitored as previously described ([Liu et al., 2008]), with several optimizations for high-throughput assays with eight-strip PCR tubes and a thermal cycler. The enzyme solution (7.7 µL) containing 50 mM HEPES (pH 7.4) was preincubated with an effector molecule(s) at room temperature for 10 min. For assays using recombinant protein and enzyme fraction isolated from plant leaves, 0.01–0.05 µg and approximately 50 µg of proteins were used, respectively. After adding 0.5 µL of 0.1 M DTT, the samples were further incubated at room temperature for 15 min. […] The enzyme reaction was started by adding 6.8 µL of the substrate solution, then incubated at 37°C for 20 min, and terminated by adding 30 µL of 0.6 M trichloroacetic acid. After brief centrifugation, 5 µL of 200 mM NaIO4 (sodium meta-periodate) in 9 N H3PO4 was added to oxidize the enzymatic product and incubate at 25°C for 20 min. […] The absorbance of the pink supernatant was read at 549 nm with the microplate reader (Infinite 200 PRO, TECAN, Männedorf, Switzerland) to calculate DAHP production with the molar extinction coefficient at 549 nm (ε = 549 nm) of 4.5 × 10^4/M/cm. […]

[8] = system: total DHS activity in Arabidopsis leaf extracts; assay: DHS activity assay of crude extracts from Arabidopsis mature leaves; format: biochemical, Arabidopsis thaliana; conditions: 1 mM; Col-0
[9] = system: DHS activity from the spinach seedling extracts; assay: DHS activity assay of crude extracts from de-etiolated spinach seedlings; format: biochemical, Spinacia oleracea; conditions: 1 mM
Method: (§4) Spinach (S. oleracea) leaves were purchased at a local grocery store. For de-etiolated spinach seedlings, spinach was germinated on the soil and grown in the dark for 3 days, followed by exposure to normal growth light for 1 day for de-etiolation. More than 20 g of fully expanded mature leaves or whole de-etiolated seedlings were harvested and ground to a fine powder in a mortar and pestle with liquid nitrogen. After dissolving in 100 mL extraction buffer (20 mM HEPES [pH 7.6], 1 mM DTT and 0.1% β-mercaptoethanol) and filtrating with Miracloth, the samples were centrifuged at 10,000 × g for 10 min and subsequently at 50,000 × g for 30 min. […] The concentrated solution was desalted twice by Sephadex G50 column size-exclusion chromatography (GE Healthcare) into 1 mL of 50 mM HEPES (pH 7.4) and quantified by the Bradford assay ([Bradford, 1976]). […]
(§5) Unless otherwise noted, DHS enzymatic activity was monitored as previously described ([Liu et al., 2008]), with several optimizations for high-throughput assays with eight-strip PCR tubes and a thermal cycler. […] The absorbance of the pink supernatant was read at 549 nm with the microplate reader (Infinite 200 PRO, TECAN, Männedorf, Switzerland) to calculate DAHP production with the molar extinction coefficient at 549 nm (ε = 549 nm) of 4.5 × 10^4/M/cm. […]

[10] = system: total DHS activity in spinach leaf extracts; assay: DHS activity assay of crude extracts from spinach mature leaves; format: biochemical, Spinacia oleracea; conditions: 1 mM
Method: as §4, §5

[11] = system: DHS activity from mung bean (Vigna radiata) seedlings; parameters: method as in Rubin and Jensen, 1985; conditions: ref Rubin and Jensen, 1985; cited from earlier work
[12] = system: DHS activity from spinach (Spinacia oleracea) leaves; parameters: method as in Doong et al., 1993; conditions: ref Doong et al., 1993; cited from earlier work
[13] = system: Arabidopsis Col-0 and dhs mutants; format: in vivo, Arabidopsis thaliana; conditions: 300 µM, 14 days after germination
Method: as §1

[14] = system: DHS activities from pea (Pisum sativum) leaves; parameters: method as in Reinink and Borstlap, 1982; conditions: 1 mM; ref Reinink and Borstlap, 1982; cited from earlier work
[15] = system: shikimate accumulation in Col-0 and dhs mutants; assay: Shikimate content with and without Tyr and/or glyphosate treatment; format: in vivo, Arabidopsis thaliana; conditions: 300 µM, without glyphosate; all genotypes except dhs1
Method: Approximately 50–80 mg of fully expanded mature leaves were pooled from multiple plants at the same developmental stages and ground in 800 µL of extraction buffer (v/v 2:1 of methanol and chloroform with 2 µg/mL isovitexin [Millipore-Sigma], 100 µM norvaline [Thermo Fisher Scientific], and 1.25 µg/mL Tocol [Matreya LLC, State College, PA, USA] for internal standards for soluble metabolite analysis by LC–MS and GC–MS and tocopherol analysis by GC–MS, respectively), using 1600 MiniG Tissue Homogenizer (SPEX SamplePrep, Metuchen, USA) and 3-mm glass beads. After adding 600 µL of H2O and then 250 µL of chloroform, polar phase containing amino acids, and non‐polar phase containing tocopherols were separated by centrifugation, dried in new tubes. To detect Trp and AAA-derived metabolites, LC–MS analysis was carried out as previous described with some modification ([Alseekh et al., 2015]). The dried metabolites were resuspended in 70 µL of 80% LC–MS-grade methanol. Two microliters of the sample was injected onto a HSS T3 C18 reversed phase column (100 × 2.1 mm i.d., 1.8-μm particle size; Waters, Milford, CT, USA) and eluted using a 20-min gradient comprising 0.1% formic acid in LC–MS-grade water (solvent A) and 0.1% formic acid in LC–MS-grade acetonitrile (solvent B) at a flow rate of 0.4 mL/min and column temperature of 40°C. The binary linear gradient with following ratios of solvent B was used: 0–1 min, 1%; 1–13 min, 1%–35%; 13–14.5 min, 35%–70%; 14.5–15.5 min, 70%–99%, 15.5–17 min, 99%; 17–17.5 min, 99%–[…]; 17.5–20 min, 1%. The spectra were recorded using full scan mode of negative ion detection, covering a mass range from m/z 100 to 1,500. The resolution was set to 25,000 and the maximum scan time was set to 250 ms. The sheath gas was set to a value of 60, while the auxiliary gas was set to 35. The transfer capillary temperature was set to 150°C, while the heater temperature was adjusted to 300°C. The spray voltage was fixed at 3 kV, with a capillary voltage and a skimmer voltage of 25 and 15 V, respectively. Retention times, MS spectra, and associated peak intensities were extracted from the raw files using the Xcalibur software (Thermo Fisher Scientific). […] For anthocyanin quantification, the polar phase isolated for amino acid analysis was diluted 10 times with water in a new tube. […] Shikimate level was spectrometrically determined based on previous literatures ([Shaner et al., 2005]; [Sharkhuu et al., 2014]). […] After stopping the reaction by adding 100 µL of a termination solution containing 0.6 N sodium hydroxide and 0.22 M sodium sulfite, the absorption at 380 nm was immediately measured with the microplate reader. Shikimate concentration was determined by comparing with a dilution series of the shikimate standards.

[16] = read-out: IC50 of root growth impairment
[17] = read-out: concentration giving 50% growth inhibition

SMILES | IC50 [1, 16] [µM] | IC50 [1, 17] [µM] | IC50 [2] [µM] | effect on AthDHS3 activity (in words) [3] | effect on AthDHS1 activity (in words) [6] | observed DHS activity of the enzyme mixtures versus theoretically calculated activity [7] | effect on total DHS activity of Arabidopsis mature leaf extract [8] | effect on DHS activity of de-etiolated spinach seedling extract [9] | effect on total DHS activity of spinach mature leaf extract [10] | IC50 [6] [µM] | other results
N[C@@H](Cc1c[nH]c2ccccc12)C(=O)O [Trp, L-tryptophan] | 140 | > 300 | 225 | activated | significantly activated | significantly higher than theoretically calculated activities | – | – | – | – | concentration that specifically impaired root growth ([1]; dhs3 mutant): ≥ 100 µM; inhibition of DHS activity [4]: 50%; effect on DHS activity [5]: activation
C=C(O[C@@H]1C=C(C(=O)O)C=C[C@H]1O)C(=O)O [chorismate] | – | – | 52.5 | completely inhibited | completely inhibited | – | more than half | significantly reduced | more than half | 97.3 | effect on AthDHS2 activity (in words) ([2]; 1 mM effector): completely inhibited; IC50 ([3]; varied effector concentrations, read-out: IC50 of AthDHS3 inhibition): 83 µM
N[C@@H](CC1(C(=O)O)C=CC(O)C=C1)C(=O)O (some centres unmarked) [arogenate] | – | – | – | did not significantly affect | did not significantly affect | – | – | – | – | – | inhibition of AthDHS2 activity ([2]; 1 mM effector): ~75%; concentration beyond which DHS activity is inhibited [11]: > 0.4 mM; concentration beyond which DHS activity is inhibited [12]: > 1 mM
O=C(O)/C=C/c1ccc(O)c(O)c1 [caffeate] | – | – | – | completely inhibited | completely inhibited | – | more than half | significantly reduced | more than half | 49.7 | IC50 [3]: 53.4 µM
N[C@@H](Cc1ccc(O)cc1)C(=O)O [Tyr, L-tyrosine] | 79 | > 300 | – | – | significantly activated | significantly higher than theoretically calculated activities | – | – | – | – | concentration that specifically impaired root growth ([1]; dhs1 mutant): ≥ 100 µM; effect of the added compound on Trp-mediated root growth inhibition of dhs3 ([1]; media with 300 µM Trp, AAAs added at 300 µM, shikimate at 500 µM): not recovered; phenotype of newly growing leaves ([13]; Col-0 and dhs3): cup-like shape; shoot phenotype ([13]; dhs1): very small and pale; cup-shaped leaf phenotype ([13]; dhs2): did not appear; inhibition of DHS activity [14]: 60%; effect on shikimate level [15]: did not alter the shikimate level

Reference: PMC8136874, “The entry reaction of the plant shikimate pathway is subjected to highly complex metabolite-mediated regulation” (The Plant Cell, 2021)
